System: 485176-168-R4-J1-PDC complex spheroid growth
Assay: Anticancer human tumor 485176-168-R4-J1-PDC patient-derived pancreatic adenocarcinoma cell line growth inhibition [RAS]
Conditions: for IC50: curve of first compound; for viability, T/C: stronger effect = lower value
Outline: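 Agents were tested in combination matrices in half-log decrements from a top concentration at or near clinical Cmax (10 microM if undetermined). Targets were multi-cell spheroids of tumour lines plus HUVEC and MSC stromal cells.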

[1] = second compound 0.00316 µM, first compound 0.0316 µM
[2] = second compound 0.00316 µM, first compound 0.1 µM
[3] = second compound 0.01 µM, first compound 0.0316 µM
[4] = second compound 0.01 µM, first compound 0.1 µM
[5] = second compound 0.0316 µM, first compound 0.0316 µM
[6] = second compound 0.0316 µM, first compound 0.1 µM
[7] = second compound 0.1 µM, first compound 0.0316 µM
[8] = second compound 0.1 µM, first compound 0.1 µM
[9] = second compound 0.316 µM, first compound 0.0316 µM
[10] = second compound 0.316 µM, first compound 0.1 µM
[11] = second compound 1 µM, first compound 0.0316 µM
[12] = second compound 1 µM, first compound 0.1 µM
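Also: spheroids exposed to compounds for seven days before readout.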
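For viability, T/C in this document: luminescence viability expressed relative to DMSO vehicle wells set as 100%.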

`CC(C)NCC(C(=O)N1CCN(c2ncnc3c2C(C)CC3O)CC1)c1ccc(Cl)cc1` (centres undefined) + C=CC(=O)N1CCN(c2nc(OCC3CCCN3C)nc3c(F)c(-c4nc(N)cc(C)c4C(F)(F)F)c(Cl)cc23)C(C)C1 was tested, and the IC50 (second compound 0.00316 µM) was 1.69 µM, the IC50 (second compound 0.01 µM) was 2.42 µM and the IC50 (second compound 0.0316 µM) was 1.63 µM. For the same compound, the IC50 (second compound 0.1 µM) was 1.54 µM, the IC50 (second compound 0.316 µM) was 2.37 µM and the IC50 (second compound 1 µM) was 1.34 µM. The viability, T/C [1] was 93.7%, the viability, T/C [2] was 97.9% and the viability, T/C (second compound 0.00316 µM, first compound 0.316 µM) was 78%. For the same compound, the viability, T/C (second compound 0.00316 µM, first compound 1 µM) was 57.4%, the viability, T/C (second compound 0.00316 µM, first compound 3.16 µM) was 42.8% and the viability, T/C (second compound 0.00316 µM, first compound 10 µM) was 35.3%. The viability, T/C [3] was 104%, the viability, T/C [4] was 83.3% and the viability, T/C (second compound 0.01 µM, first compound 0.316 µM) was 79%. It also gave a viability, T/C (second compound 0.01 µM, first compound 1 µM) of 62.4%, a viability, T/C (second compound 0.01 µM, first compound 3.16 µM) of 43.8% and a viability, T/C (second compound 0.01 µM, first compound 10 µM) of 34.2%. It also gave a viability, T/C [5] of 101%, a viability, T/C [6] of 83.5% and a viability, T/C (second compound 0.0316 µM, first compound 0.316 µM) of 70.7%. For the same compound, the viability, T/C (second compound 0.0316 µM, first compound 1 µM) was 53.2%, the viability, T/C (second compound 0.0316 µM, first compound 3.16 µM) was 45.3% and the viability, T/C (second compound 0.0316 µM, first compound 10 µM) was 30.5%. The viability, T/C [7] was 109%, the viability, T/C [8] was 82.7% and the viability, T/C (second compound 0.1 µM, first compound 0.316 µM) was 69.2%. For the same compound, the viability, T/C (second compound 0.1 µM, first compound 1 µM) was 55%, the viability, T/C (second compound 0.1 µM, first compound 3.16 µM) was 45.2% and the viability, T/C (second compound 0.1 µM, first compound 10 µM) was 29.9%. It also gave a viability, T/C [9] of 106%, a viability, T/C [10] of 102% and a viability, T/C (second compound 0.316 µM, first compound 0.316 µM) of 79.3%. For the same compound, the viability, T/C (second compound 0.316 µM, first compound 1 µM) was 65.2%, the viability, T/C (second compound 0.316 µM, first compound 3.16 µM) was 46.1% and the viability, T/C (second compound 0.316 µM, first compound 10 µM) was 27.3%. For the same compound, the viability, T/C [11] was 108%, the viability, T/C [12] was 93.9% and the viability, T/C (second compound 1 µM, first compound 0.316 µM) was 79.1%. For the same compound, the viability, T/C (second compound 1 µM, first compound 1 µM) was 50.5%, the viability, T/C (second compound 1 µM, first compound 3.16 µM) was 41% and the viability, T/C (second compound 1 µM, first compound 10 µM) was 28.9%.

`CC(C)n1nc(-c2ccc3oc(N)nc3c2)c2c(N)ncnc21` + C=CC(=O)N1CCN(c2nc(OCC3CCCN3C)nc3c(F)c(-c4nc(N)cc(C)c4C(F)(F)F)c(Cl)cc23)C(C)C1 was tested, and the IC50 (second compound 0.00316 µM) was 0.0201 µM, the IC50 (second compound 0.01 µM) was 0.0272 µM and the IC50 (second compound 0.0316 µM) was 0.0166 µM. For the same compound, the IC50 (second compound 0.1 µM) was 0.0355 µM, the IC50 (second compound 0.316 µM) was 0.0215 µM and the IC50 (second compound 1 µM) was 0.0236 µM. The viability, T/C (second compound 0.00316 µM, first compound 0.000316 µM) was 97.2%, the viability, T/C (second compound 0.00316 µM, first compound 0.001 µM) was 92.6% and the viability, T/C (second compound 0.00316 µM, first compound 0.00316 µM) was 84.2%. It also gave a viability, T/C (second compound 0.00316 µM, first compound 0.01 µM) of 66.1%, a viability, T/C [1] of 39.3% and a viability, T/C [2] of 27%. For the same compound, the viability, T/C (second compound 0.01 µM, first compound 0.000316 µM) was 81.8%, the viability, T/C (second compound 0.01 µM, first compound 0.001 µM) was 88.8% and the viability, T/C (second compound 0.01 µM, first compound 0.00316 µM) was 91.8%. The viability, T/C (second compound 0.01 µM, first compound 0.01 µM) was 67.5%, the viability, T/C [3] was 48.6% and the viability, T/C [4] was 18.8%. It also gave a viability, T/C (second compound 0.0316 µM, first compound 0.000316 µM) of 89.9%, a viability, T/C (second compound 0.0316 µM, first compound 0.001 µM) of 90% and a viability, T/C (second compound 0.0316 µM, first compound 0.00316 µM) of 81.2%. The viability, T/C (second compound 0.0316 µM, first compound 0.01 µM) was 54.7%, the viability, T/C [5] was 42.3% and the viability, T/C [6] was 23.8%. For the same compound, the viability, T/C (second compound 0.1 µM, first compound 0.000316 µM) was 109%, the viability, T/C (second compound 0.1 µM, first compound 0.001 µM) was 89.5% and the viability, T/C (second compound 0.1 µM, first compound 0.00316 µM) was 84.7%. It also gave a viability, T/C (second compound 0.1 µM, first compound 0.01 µM) of 74.5%, a viability, T/C [7] of 56% and a viability, T/C [8] of 23.3%. The viability, T/C (second compound 0.316 µM, first compound 0.000316 µM) was 92%, the viability, T/C (second compound 0.316 µM, first compound 0.001 µM) was 78.3% and the viability, T/C (second compound 0.316 µM, first compound 0.00316 µM) was 85.7%. It also gave a viability, T/C (second compound 0.316 µM, first compound 0.01 µM) of 62.6%, a viability, T/C [9] of 43.6% and a viability, T/C [10] of 30.1%. For the same compound, the viability, T/C (second compound 1 µM, first compound 0.000316 µM) was 81.1%, the viability, T/C (second compound 1 µM, first compound 0.001 µM) was 92.6% and the viability, T/C (second compound 1 µM, first compound 0.00316 µM) was 82%. It also gave a viability, T/C (second compound 1 µM, first compound 0.01 µM) of 72%, a viability, T/C [11] of 42.5% and a viability, T/C [12] of 22.2%.

Reference: PubChem BioAssay AID2060906 (Molecular Pharmacology Branch, DTP, NCI, 2025)
